Measurements published in patent US9388216B2, “Methods of treating reproductive cancer” (Medical Research Council, priority 2006, dated 2016).
Non-standard residues stand in square brackets, D forms with d. pGlu = O=C1CC[C@@H](C(=O)O)N1

Experiments:
[1] = tested on: GnRH-induced PARP cleavage (caspase 3 activation) in HEK293/rGnRHR cells; assay: Inhibition of GnRH-induced PARP cleavage by chemical inhibitors; details: for remaining GnRH I-induced PARP cleavage, mean±S.E.M.: 100 nM GnRH I plus inhibitor; for remaining GnRH I-induced PARP cleavage, mean±S.E.M. / remaining GnRH II-induced PARP cleavage, mean±S.E.M. / effect on GnRH-induced apoptosis / caspase 3 activation (in words): 48 h, complete medium; for remaining GnRH II-induced PARP cleavage, mean±S.E.M.: 100 nM GnRH II plus inhibitor
Protocol: Cells were maintained in Dulbecco's modified Eagles medium (DMEM) (Sigma) supplemented with 10% fetal bovine serum, 2% glutamine and 1% penicillin (10,000 units/ml)/streptomycin (10,000 μg/ml) at 37° C. in a humidified 5% CO2 atmosphere. Cell treatments were performed at 37° C. in serum-containing medium with varying molecule concentrations and time periods, as indicated in the figure legends.
After stimulation of cells growing on 6-well plates, cell monolayers were placed on ice, washed twice in ice-cod Dulbecco's phosphate buffered saline (DPBS), and lysed in a NP-40-based solubilisation buffer (5 mM HEPES, 0.25 M NaCl, 0.5% NP-40, 10% glycerol, 2 mM EDTA pH8.0, 1 mM PMSF, 0.01 mg/ml leupeptin, 1 mM Na2VO4). Solubilised lysates were clarified by centrifugation at 15,000 rpm for 15 min. A 50 μl-aliquot of clarified whole-cell lysate was mixed with an equal volume of 2× Laemmli sample buffer, resolved by SDS-polyacrylamide gel electrophoresis (SDS-PAGE) and transferred to a PVDF membrane (NEN Life Sciences/PerkinElmer Life and Analytical Sciences; Beaconsfield, Bucks, UK). These membranes were blocked in a 4% bovine serum albumin, 50 mM Tris-HCl, pH 7.0, 0.05% Tween-20 and 0.05% NP-40 blocking solution. […] Apoptosis was assessed by incubating the PVDF membranes with a 1:1,000 dilution of anticleaved PARP rabbit polyclonal antibody at 4° C. with gentle shaking overnight. […] An alkaline phosphatase conjugated IgG (Sigma) was employed as a secondary antibody in all cases. Visualization of proteins was performed using enzyme-linked chemifluoresence (Amersham Biosciences Ltd.; St. Giles, Bucks, UK) and quantified using a Typhoon 9400 Phosphorimager.
Then, cells were lysed and a western blot with specific anti-cleaved PARP antibody was carried out as explained before.

rat GnRH receptor [2] = molecular target: T1, rat GnRH receptor (Rattus norvegicus, UniProt P30969); assay: Competition binding assay with [125I][His5,D-Trp6]GnRH I in HEK293/rGnRHR cells
T1 construct: expressed in transfected cells
T1 sequence (P30969 1-327): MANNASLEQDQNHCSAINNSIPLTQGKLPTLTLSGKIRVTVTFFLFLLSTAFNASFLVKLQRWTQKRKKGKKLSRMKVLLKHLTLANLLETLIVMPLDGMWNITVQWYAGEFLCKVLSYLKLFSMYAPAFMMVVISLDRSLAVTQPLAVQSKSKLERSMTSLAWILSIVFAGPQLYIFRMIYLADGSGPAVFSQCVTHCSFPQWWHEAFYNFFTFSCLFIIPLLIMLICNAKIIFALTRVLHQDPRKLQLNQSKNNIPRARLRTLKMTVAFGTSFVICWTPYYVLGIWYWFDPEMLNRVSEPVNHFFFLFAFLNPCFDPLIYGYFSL
Protocol: Cell monolayers growing on 12-well PLL-coated plates were incubated in binding buffer (10 mM HEPES, 1% BSA in DMEM) containing […] radioligand (100,000 cpm) and 10-6-10-12 M unlabelled ligand. Equilibrium was reached after incubation for 4 h at 4° C. Cells were then lysed in 0.1 M NaOH and the radioactivity in the extract was measured in a 1261 Wallac MultiGamma counter.
(§1) Bar graphs and curves were obtained using Prism 3.0 (GraphPad Software, Inc.: San Diego, Calif., USA). IC50 and EC50 values were determined by non-linear regression analysis. Curves were best-fitted to a one-site model. […] Values were normalised as specified in the figure legends.

rat GnRH receptor [3] = molecular target: T1, rat GnRH receptor; assay: Accumulation of total inositol phosphates (PLCβ activation) in HEK293/rGnRHR cells; format: cell-based
Protocol: HEK293 cells stably expressing the GnRH receptor growing on 12-well PLL-coated plates were pre-labelled with 1 μCi/ml myo-[H3]inositol (Amersham) in inositol-free DMEM (Sigma) for 48 h. On the day of the experiment, cells were washed with assay buffer (140 mM NaCl, 20 mM HEPES, 8 mM glucose, 4 mM KCl, 1 mM MgCl2, 1 mM CaCl2, 1 mg/ml BSA), pre-incubated with 10 mM LiCl (in assay buffer) for 30 min, and stimulated with different concentrations of the peptides (in the same buffer) for 1 h at 37° C. Incubations were terminated by removing the culture medium and lysing the cells in ice cold 10 mM formic acid for 30 min. Inositol phosphates were extracted by chromatography with an anion exchange resin (AG® 1-X8, Bio-Rad) using 1 M ammonium formate and 0.1 M formic acid. Liquid scintillant was added to the final eluate and [3H]inositol phosphates were measured in the β-counter.
as §1

human GnRH receptor = molecular target: T2, human GnRH receptor (Homo sapiens, UniProt P30968); assay: Accumulation of total inositol phosphates (PLCβ activation) in HEK293/hGnRHR cells; format: cell-based
T2 construct: expressed in transfected cells
T2 sequence (P30968 1-328): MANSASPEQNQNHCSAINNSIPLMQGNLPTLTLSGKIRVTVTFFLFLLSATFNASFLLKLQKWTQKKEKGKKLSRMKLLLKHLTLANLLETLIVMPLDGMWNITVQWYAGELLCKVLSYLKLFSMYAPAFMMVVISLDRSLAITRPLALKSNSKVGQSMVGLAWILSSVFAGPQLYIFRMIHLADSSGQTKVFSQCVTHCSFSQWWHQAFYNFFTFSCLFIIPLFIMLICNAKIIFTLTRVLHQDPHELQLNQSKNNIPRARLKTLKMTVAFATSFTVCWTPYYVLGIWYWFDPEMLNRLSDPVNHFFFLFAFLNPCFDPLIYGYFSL

HEK293/rGnRHR cells = assay: Cell growth inhibition (viable cell number after 5 days of continuous treatment) in HEK293/rGnRHR cells; format: cell-based, rat; details: for fold more potent than GnRH I to induce cell death / inhibit cell growth / antiproliferative/apoptotic potency compared with GnRH I (in words): rat receptor; for antiproliferative/apoptotic potency compared with GnRH I (in words): 5 days
Protocol: (§2) For the first method, HEK293 cells expressing various GnRH receptor constructs were seeded into 12-well PLL-coated plates at 50,000 cells (in 1 ml)/well and cultured with continuous GnRH exposure for five days, adding fresh peptide every day. Trypan Blue-excluding cells were then counted with a haemocytometer. For the second method, cells were seeded into 96-well plates at 5,000 cells (in 100 μl)/well and treated exactly as described before. 10 μl WST-1 reagent (Roche Diagnostics Ltd.; Lewes, East Sussex, UK) was added directly to each well and, after 3 h at 37° C., absorbance was read at 450 nm (with a reference at 690 nm) against a background control as blank using a microplate ELISA reader.
as §1
(§3) Antiproliferation/apoptosis was estimated by determining cell number after five days of continuous exposure to the peptides. In parallel, this response was compared to the classical Gq coupled-PLCβ activation induced by GnRH peptides, as measured by the very well characterized inositol phosphates accumulation protocol. Both outputs were determined in two HEK293 cell lines; one expressing the rat receptor and the other expressing the human receptor. The human cell line was included in the study because this species may be clinically more relevant and the very low receptor expression may better reflect the in vivo tumoural state. In fact, due to poor binding, the precise affinity of the analogues on this cell line could not be determined.

HEK293/hGnRHR cells = assay: Cell growth inhibition (viable cell number after 5 days of continuous treatment) in HEK293/hGnRHR cells; format: cell-based, human; details: for fold more potent than GnRH I to induce cell death / inhibit cell growth / antiproliferative/apoptotic potency compared with GnRH I (in words): human receptor; for antiproliferative/apoptotic potency compared with GnRH I (in words): 5 days
Protocol: as §2, §1, §3

[4] = HEK293/human GnRH receptor cells

## CC(C)(C)n1nc(-c2ccc(Cl)cc2)c2c(N)ncnc21 [PP2]
[1]
  remaining GnRH I-induced PARP cleavage, mean±S.E.M.: 20±4
  remaining GnRH II-induced PARP cleavage, mean±S.E.M.: 18±2

## [Tyr8]GnRH I: GnRH I with Arg8 substituted by Tyr8 of GnRH II (QHWSYGLYPG; Gonadoliberin-1; UniProt P01148 24-33, looked up, variant R8Y)
Rat GnRH receptor [2]
  affinity compared with GnRH I (in words): very low affinity
Rat GnRH receptor [3]
  fold less potent to stimulate PLCβ compared to GnRH I: 27.3 fold
Human GnRH receptor
  fold less potent to stimulate PLCβ relative to GnRH I: 23.7 fold
HEK293/rGnRHR cells; range across rat and human receptor cell lines (discussion)
  fold more potent to suppress cell growth relative to GnRH I: 4-11 fold
HEK293/rGnRHR cells
  fold more potent than GnRH I to induce cell death / inhibit cell growth: 4.2 fold
HEK293/hGnRHR cells; [4]
  antiproliferative effect compared with inositol phosphate production, selectivity (in words): most selective antiproliferative/apoptotic analogue
HEK293/hGnRHR cells
  fold more potent than GnRH I to induce cell death / inhibit cell growth: 10.7 fold

## CO[C@H]1[C@@H](OC)C[C@H](C)[C@@H](OC)C2=CC(=O)C=C(NC(=O)/C(C)=C/C=C\[C@H](OC)[C@@H](OC(N)=O)/C(C)=C/[C@@H]1C)C2=O [herbimycin A]
[1]
  remaining GnRH I-induced PARP cleavage, mean±S.E.M.: 9±1
  remaining GnRH II-induced PARP cleavage, mean±S.E.M.: 41±4

## [His5]GnRH I: GnRH I with Tyr5 substituted by His5 of GnRH II (QHWSHGLRPG; Gonadoliberin-1; UniProt P01148 24-33, looked up, variant Y5H)
Rat GnRH receptor [2]
  affinity compared with GnRH I (in words): higher affinity than GnRH I
Rat GnRH receptor [3]
  potency to stimulate inositol phosphates accumulation / PLCβ activation compared with GnRH I (in words): better potencies
Human GnRH receptor
  potency to stimulate inositol phosphates accumulation / PLCβ activation compared with GnRH I (in words): better potencies
HEK293/rGnRHR cells
  antiproliferative/apoptotic potency compared with GnRH I (in words): better potencies
HEK293/hGnRHR cells; [4]
  antiproliferative potency (in words): most potent antiproliferative/apoptotic agent ever described
HEK293/hGnRHR cells
  antiproliferative/apoptotic potency compared with GnRH I (in words): better potencies

## [His5,Trp7]GnRH I: double mutant GnRH I incorporating His5 and Trp7 of GnRH II ([pGlu]HWSHGWRPG-NH2; ends and bridges not checked; UniProt P01148 24-33, looked up, variant Y5H L7W)
HEK293/rGnRHR cells
  antiproliferative/apoptotic potency compared with GnRH I (in words): improved antiproliferative/apoptotic capacity
HEK293/hGnRHR cells
  antiproliferative/apoptotic potency compared with GnRH I (in words): improved antiproliferative/apoptotic capacity

## COc1ccc2c(c1)c(C1=C(c3c[nH]c4ccccc34)C(=O)NC1=O)cn2CCCN(C)C [Gö 6983]
[1]
  remaining GnRH I-induced PARP cleavage, mean±S.E.M.: 47±22
  remaining GnRH II-induced PARP cleavage, mean±S.E.M.: 35±18
  effect on GnRH-induced apoptosis / caspase 3 activation (in words): clearly more efficient than Ro-31-8220
[1]; discussion
  extent of the effect upon GnRH-stimulated apoptosis: ~40%

## [Trp7,Tyr8]GnRH I: double mutant GnRH I incorporating Trp7 and Tyr8 of GnRH II ([pGlu]HWSYGWYPG-NH2; ends and bridges not checked; UniProt P01148 24-33, looked up, variant L7W R8Y)
Rat GnRH receptor [2]
  affinity compared with GnRH I (in words): almost identical to those of [Tyr8]GnRH I
Rat GnRH receptor [3]
  potency to stimulate inositol phosphates accumulation / PLCβ activation compared with GnRH I (in words): almost identical to those of [Tyr8]GnRH I
Human GnRH receptor
  potency to stimulate inositol phosphates accumulation / PLCβ activation compared with GnRH I (in words): almost identical to those of [Tyr8]GnRH I
HEK293/rGnRHR cells
  antiproliferative/apoptotic potency compared with GnRH I (in words): almost identical to those of [Tyr8]GnRH I
HEK293/hGnRHR cells
  antiproliferative/apoptotic potency compared with GnRH I (in words): almost identical to those of [Tyr8]GnRH I

## COc1cccc(-c2cc(=O)c3ccccc3o2)c1N [PD98059]
[1]
  remaining GnRH I-induced PARP cleavage, mean±S.E.M.: 17±6
  remaining GnRH II-induced PARP cleavage, mean±S.E.M.: 14±13

## NCCOB(c1ccccc1)c1ccccc1 [2-APB, 2-aminoethyl-diphenilborinate]
[1]; inhibitor alone
  PARP cleavage caused by the inhibitor itself (cytotoxicity): significant PARP cleavage by themselves

## COc1cc2ncnc(Nc3cccc(Cl)c3)c2cc1OC [AG1478]
[1]
  remaining GnRH I-induced PARP cleavage, mean±S.E.M.: 13±10
  remaining GnRH II-induced PARP cleavage, mean±S.E.M.: 18±11

## [Trp7]GnRH I: GnRH I with Leu7 replaced by Trp7 of GnRH II (QHWSYGWRPG; Gonadoliberin-1; UniProt P01148 24-33, looked up, variant L7W)
Rat GnRH receptor [2]
  affinity compared with GnRH I (in words): did not modify the affinity and PLCβ activation capacity
Rat GnRH receptor [3]
  potency to stimulate inositol phosphates accumulation / PLCβ activation compared with GnRH I (in words): did not modify the affinity and PLCβ activation capacity
Human GnRH receptor
  potency to stimulate inositol phosphates accumulation / PLCβ activation compared with GnRH I (in words): did not modify the affinity and PLCβ activation capacity
HEK293/rGnRHR cells
  fold more potent than GnRH I to induce cell death / inhibit cell growth: 9.1 fold
HEK293/hGnRHR cells
  fold more potent than GnRH I to induce cell death / inhibit cell growth: 19.3 fold

## Cn1cc(C2=C(c3cn(CCCSC(=N)N)c4ccccc34)C(=O)NC2=O)c2ccccc21 [Ro-31-8220]
[1]
  effect on GnRH-induced apoptosis / caspase 3 activation (in words): no effect

## [His5,Tyr8]GnRH I: double mutant GnRH I incorporating His5 and Tyr8 of GnRH II ([pGlu]HWSHGLYPG-NH2; ends and bridges not checked; UniProt P01148 24-33, looked up, variant Y5H R8Y)
Rat GnRH receptor [2]
  affinity compared with GnRH I (in words): features intermediate between GnRH I and [Tyr8]GnRH I
Rat GnRH receptor [3]
  potency to stimulate inositol phosphates accumulation / PLCβ activation compared with GnRH I (in words): features intermediate between GnRH I and [Tyr8]GnRH I
Human GnRH receptor
  potency to stimulate inositol phosphates accumulation / PLCβ activation compared with GnRH I (in words): features intermediate between GnRH I and [Tyr8]GnRH I
HEK293/rGnRHR cells
  antiproliferative/apoptotic potency compared with GnRH I (in words): more potent to inhibit cell growth than GnRH I
HEK293/hGnRHR cells
  antiproliferative/apoptotic potency compared with GnRH I (in words): more potent to inhibit cell growth than GnRH I

## O=C1c2ccccc2-c2n[nH]c3cccc1c23 [JNKII inhibitor]
[1]
  remaining GnRH I-induced PARP cleavage, mean±S.E.M.: 84±29
  remaining GnRH II-induced PARP cleavage, mean±S.E.M.: 72±22

## PTX: Gi inhibitor from Biomol
[1]
  effect on GnRH-induced apoptosis / caspase 3 activation (in words): not having any effect
